# Assay results from patent US5420276A, “Analogs of oxetanyl purines and pyrimidines” (Abbott Laboratories, priority 1993, dated 1995).
# How the values were obtained:
# [1] = tested on: Varicella-Zoster Virus (VZV) clinical isolate DM625; experiment: VZV plaque reduction assay; type: cell-based; conditions: Human alphaherpesvirus 3, 144 h, VZV in HFF; for EC50: minimum concentration required to inhibit plaque formation by 50%, read-out: MIC50
# Method: The compounds of the invention were evaluated for selective activity against varicella zoster virus (VCV) utilizing a plaque reduction assay procedure. The challenge virus was a clinical isolate designated DM625, obtained from Dr. Richard Whitley of the University of Alabama Hospitals, Birmingham, Ala. The virus had been passaged and titrated in cultures of human foreskin fibroblasts (HFF).
# (§1) For the plaque reduction assay, sixth to twelfth passage human foreskin fibroblasts were seeded in wells of 12-well tissue culture plates and incubated at 37° C. in a humidified atmosphere containing 2% CO2 in air. Subconfluent HFF were rinsed with MEM and exposed to 0.5 ml/well of a suspension of VZV diluted in MEM+2% FBS for 2 hours at 37° C. Following the virus adsorption period, the inocula were removed and the infected cell layers were rinsed with MEM. Triplicate VZV-infected cell culture wells were treated with 1.0 ml of each concentration of test compound (in MEM+2% FBS). Six untreated virus-infected cell cultures and triplicate untreated uninfected cell cultures were fed with 1.0 ml of MEM+2% FBS to serve as controls. Wells containing uninfected HFF were treated with each concentration of test compound to monitor the test compound cytotoxicity. The 12-well plates were incubated at 37° C. in the CO2 incubator. At 48 hours post-virus infection (p.i.), fluids in all plate wells were replaced with fresh test compound and/or culture medium.
# Six days p.i., the VZV plaques were counted (unstained, low magnification).The effect of each concentration of test compound on plaque formation was determined by comparing the mean number of plaques in the replicate test compound-treated cultures with the mean plaque counts of the untreated virus control cultures.
# The MIC50 value is the minimum concentration of test Compound required to inhibit plaque formation by 50%.
# [2] = MTT test compound cytotoxicity in human foreskin fibroblasts; type: cell-based; conditions: hff cells, read-out: MTT assay (Percent of control)
# Method: as §1
# The test compound cytotoxicity control cultures were examined microscopically for gross morphologic changes, then treated with MTT and 30% SDS. The blue color of the MTT formazan was measured spectrophotometrically at 570 nm. Test compound cytotoxicity was determined by comparing the absorbance (O.D.) of each test compound control with the mean O.D. of the cell control cultures and expressed as percent of control.
# HSV-1 (E-377) = experiment: CPE inhibition assay (MTT), HSV-1 (E-377) in Vero cells; type: cell-based, herpes simplex virus type 1; conditions: Human alphaherpesvirus 1, inhibited CPE by 50%
# Method: (§2) Vero cells were pregrown as monolayers in wells of COSTAR 96-well tissue culture plates using suitable cell culture media. Stock viruses were pretitered according to the method of Reed and Muench (Amer. J. Hyg. 27 493 (1938)) and diluted in cell culture medium to yield 32 CCID50 (cell culture infectious dose, 50%) units per 0.1 mL. Antiviral assays were designed to test six concentrations of each compound, from cytotoxic to noncytotoxic levels, in triplicate against each of the challenge viruses in microtiter plate wells containing cell monolayers. To each of the replicate cell cultures were added 0.1 mL of the test-compound solution and 0.1 mL of virus suspension. Two compounds were evaluated per plate. The following controls were included:
# (§3) (1) Cell controls containing cells+medium;
# (§4) (2) Untreated, virus-infected cell controls;
# (§5) (3) Test-compound cytotoxicity controls containing uninfected, test-compound treated cells;
# (§6) (4) Test-compound color controls-test-compound+medium (no cells); and
# (§7) (5) Reagent (experiment medium) controls-medium only (no cells).
# (§8) The covered plates were incubated at 37° C. in a humidified atmosphere containing 2% CO2. When cytopathogenic effect (CPE) in untreated virus control wells reached 100%, 20 μL of 3-(4,5-dimethyl-thiazol-2-yl)-2,5-diphenyl tetrazolium bromide (MTT) (dissolved in PBS at 5 mg/mL) was pipetted into each of the plate wells. The plates were incubated at 37° C. for six hours; then 40 μL of 30% SDS (in 0.02N HCl) was added to each well. After overnight incubation at 37° C., the blue color or the MTT formazan was measured spectrophotometrically at 570 nm. The optical density (OD) value of each culture is a function of the amount of formazan produced which is proportional to the number of viable cells. A computer program was utilized to calculate the percent (CPE) reciprocal of % CPE reduction) of the virus-infected wells and % cell viability of the uninfected test-compound control wells.
# The IC50 value is the minimum test-compound concentration (μg/mL) that inhibited CPE by 50% calculated by using a regression analysis program for semilog curve fitting. The TC25 value is the minimum test-compound concentration (μg/mL) that reduced cell viability by 25%.
# Vero cells = experiment: MTT cell viability of uninfected test-compound control Vero cells; type: cell-based, African green monkey; conditions: reduced cell viability by 25%, HSV-1 (E-377) line
# Method: as §2, §5
# The covered plates were incubated at 37° C. in a humidified atmosphere containing 2% CO2. When cytopathogenic effect (CPE) in untreated virus control wells reached 100%, 20 μL of 3-(4,5-dimethyl-thiazol-2-yl)-2,5-diphenyl tetrazolium bromide (MTT) (dissolved in PBS at 5 mg/mL) was pipetted into each of the plate wells. The plates were incubated at 37° C. for six hours; then 40 μL of 30% SDS (in 0.02N HCl) was added to each well. After overnight incubation at 37° C., the blue color or the MTT formazan was measured spectrophotometrically at 570 nm. […]
# HSV-2 (MS) = experiment: CPE inhibition assay (MTT), HSV-2 (MS) in Vero cells; type: cell-based, herpes simplex virus type 2; conditions: Human alphaherpesvirus 2, inhibited CPE by 50%
# Method: as §2, §3, §4, §5, §6, §7
# as §8, with “control wells. […]” for “control wells.”
# [3] = tested on: Herpes Simplex Virus Type 1; experiment: Neutral red dye uptake assay for antiviral activity, HSV-1 in Vero cells; type: cell-based; conditions: Human alphaherpesvirus 1, HSV-1, Vero, concentration at which 50% CPE would be observed, read-out: MIC50
# Method: (§9) Vero cell monolayers were harvested by trypsinization. The number of viable cells per ml. was determined by staining an aliquot with trypan blue and counting in a hemocytometer. Cell densities were adjusted in growth medium to contain 4×10^5 cells/mi. 96-well sterile tissue culture plates were seeded with 100 μl/well of the adjusted cell suspensions, i.e., 4×10^4 cells/well. Seeded plates were incubated overnight at 37° C. with CO2.
# (§10) After overnight incubation, monolayers were approximately confluent. The growth medium was removed and the monolayers in each cell were infected with 100 μl of virus diluted in maintenance medium to produce approximately 90% cytopathogenic effect (CPE) after 2 to 3 days incubation. The virus was allowed to adsorb for 1 hour at 37° C. with 4 to 6% CO2. Controls for cell growth were overlayed with virus-free maintenance medium. The maintenance medium containing residual virus was removed.
# (§11) The test compounds were dissolved and/or diluted in maintenance medium to the concentration desired for testing and were added to the wells of the plate. Aliquots (100 μl ) of each concentration were added to wells in replicate (duplicate or triplicate). Controls for virus activity were overlayed with drug-free maintenance medium. Replicate wells containing only maintenance medium served as controls for background absorbance levels.
# After incubation, the medium was removed from all the wells. 100 μl of neutral red solution was added to each well and the plate was incubated at 37° C. without CO2 for 2 hours. After the 2 hour incubation, the excess neutral red solution was removed. […]
# The neutral red stain taken up by the viable cells was extracted by adding 100 μl/well of acidified methanol, pH 1.0. […] The amount of neutral red stain extracted into the methanol was quantified by determining the absorbance at a wavelength of 540 nm.
# The percent CPE in virus controls was determined by the following formula: [formula]
# The percent CPE in cells infected with virus and treated with the test compound was determined by the following formula: [formula] […]
# in vitro = type: cell-based, African green monkey; conditions: monkey, vero cells
# Method: as §9, §10, §11
# After incubation, the medium was removed from all the wells. 100 μl of neutral red solution was added to each well and the plate was incubated at 37° C. without CO2 for 2 hours. After the 2 hour incubation, the excess neutral red solution was removed. The plates were washed with 100 μl/well of PBS, pH 7.2 and then the PBS was removed.
# The neutral red stain taken up by the viable cells was extracted by adding 100 μl/well of acidified methanol, pH 1.0. (The acidified methanol fixed the cells to the well). The plate was allowed to stand at room temperature for at least 15 minutes to allow for maximum extraction. The amount of neutral red stain extracted into the methanol was quantified by determining the absorbance at a wavelength of 540 nm. […]
SMILES,inhibition at 0.032 µM [1],inhibition at 0.1 µM [1],inhibition at 0.32 µM [1],inhibition at 1 µM [1],EC50 [1],viability at 0.1 µM [2],viability at 0.32 µM [2],viability at 1 µM [2],IC50 (HSV-1 (E-377)),inhibition at 3.2 µM [1],inhibition at 10 µM [1],inhibition at 32 µM [1],inhibition at 100 µM [1],inhibition at 320 µM [1],inhibition at 1000 µM [1],viability at 3.2 µM [2],viability at 10 µM [2],viability at 32 µM [2],viability at 100 µM [2],IC50 (HSV-2 (MS)),further results
"O=c1[nH]c(=O)n([C@@H]2O[C@H](CO)[C@H]2CO)cc1C=CI [Example 49, 1([2'R, 3'R, 4'S]-3',4'-Bis(hydroxymethyl)-2'-oxetanyl)-5-(2-iodo-1-vinyl)uracil]",97%,98%,98%,99%,0.01 µg/mL,100%,100%,100%,0.67 µg/mL,,,,,,,,,,,,inhibition at 0.0032 µM ([1]; 0.0032 μM): 18%; inhibition at 0.01 µM ([1]; 0.01 μM): 49%; TC25 (Vero cells): > 380 µg/mL
"O=c1[nH]c(=O)n([C@@H]2O[C@H](CO)[C@H]2CO)cc1Br [Example 43, 1-([2'R, 3'R, 4'S]-3',4'-Bis(hydroxymethyl)-2'-oxetanyl)-5-bromouracil]",1%,12%,41%,75%,0.17 µg/mL,100%,96%,100%,0.7 µg/mL,98%,99%,99%,100%,100%,100%,93%,99%,93%,100%,141 µg/mL,viability at 0.032 µM ([2]; 0.032 μM): 100%; viability at 320 µM [2]: 88%; viability at 1000 µM [2]: 82%
"O=c1[nH]c(=O)n([C@@H]2O[C@H](CO)[C@H]2CO)cc1I [Example 42, 1-([2'R, 3'R, 4'S]-3',4'-Bis(hydroxymethyl)-2'-oxetanyl)-5-iodouracil]",7%,2%,54%,76%,0.1 µg/mL,,,93%,0.05 µg/mL,98%,99%,100%,100%,99.6%,100%,94%,80%,88%,82%,35.3 µg/mL,viability at 320 µM [2]: 79%; viability at 1000 µM [2]: 68%
"C=Cc1cn([C@@H]2O[C@H](CO)[C@H]2CO)c(=O)[nH]c1=O [Example 61, 1-([2'R, 3'R, 4'S]-3',4'-Bis(hydroxymethyl)-2'-oxetanyl)-5-vinyluracil]",,,,,,,,,,,,,,,,,,,,6.3 µg/mL,EC50 [3]: 0.02 µg/mL; CC50 (in vitro): > 1000 µg/mL
